Test results taken from patent publication US8470855B2, “Dual-use peptidase inhibitors as prodrugs for a therapy of inflammatory and other diseases” (IMTM GmbH, priority 2005, dated 2013).

Columns and labels:
[1] = molecular target: T1, APN (Leucin aminopeptidase, microsomal, EC 3.4.11.2) (Sus scrofa, UniProt P15145); assay: IC50 determination against APN after reduction of the prodrugs with DTT; format: biochemical; settings: after release (reduction with DTT) of the inhibitors from the prodrugs; pig kidney enzyme, substrate Leu-AMC, pH 7.2, 30° C.; read-out: APN (IC 50 [M])
T1 construct: purchased Sigma; host or cells: pig kidney (tissue-derived)
T1 sequence (P15145 1-963): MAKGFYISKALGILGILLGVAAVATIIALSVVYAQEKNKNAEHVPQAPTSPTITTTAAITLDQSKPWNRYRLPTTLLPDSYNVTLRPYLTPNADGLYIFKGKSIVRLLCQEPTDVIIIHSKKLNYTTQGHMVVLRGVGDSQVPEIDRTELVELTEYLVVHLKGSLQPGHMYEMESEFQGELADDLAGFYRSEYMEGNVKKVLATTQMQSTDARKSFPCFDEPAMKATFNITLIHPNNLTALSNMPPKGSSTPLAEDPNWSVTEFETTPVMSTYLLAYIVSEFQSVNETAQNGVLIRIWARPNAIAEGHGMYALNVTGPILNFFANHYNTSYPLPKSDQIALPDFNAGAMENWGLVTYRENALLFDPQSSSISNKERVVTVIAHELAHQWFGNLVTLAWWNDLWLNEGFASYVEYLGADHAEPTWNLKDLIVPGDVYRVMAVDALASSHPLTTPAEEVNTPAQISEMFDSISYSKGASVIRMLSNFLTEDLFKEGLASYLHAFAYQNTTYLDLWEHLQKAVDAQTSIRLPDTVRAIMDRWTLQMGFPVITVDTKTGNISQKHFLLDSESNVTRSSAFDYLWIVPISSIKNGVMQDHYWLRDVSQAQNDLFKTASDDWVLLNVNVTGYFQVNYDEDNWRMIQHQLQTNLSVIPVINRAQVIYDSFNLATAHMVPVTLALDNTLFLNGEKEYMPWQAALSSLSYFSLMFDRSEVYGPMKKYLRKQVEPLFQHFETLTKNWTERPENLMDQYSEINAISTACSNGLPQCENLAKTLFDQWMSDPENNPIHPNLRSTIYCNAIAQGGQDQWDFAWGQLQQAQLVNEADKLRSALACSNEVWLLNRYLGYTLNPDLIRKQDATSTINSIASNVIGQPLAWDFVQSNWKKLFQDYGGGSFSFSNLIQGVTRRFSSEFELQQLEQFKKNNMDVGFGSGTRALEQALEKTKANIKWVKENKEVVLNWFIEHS
Experimental: (§1) Process of the Reduction with DTT:
(§2) Same volumes of the 7·10^−2 M solution of the inhibitor in water or DMF and a 0.35 M aqueous DTT-solution (5 equivalents) were agitated 4 hours at RT.
(§3) Subsequently to the reductive treatment of the prodrugs the IC50-values were estimated using the following process:
(§4) Determination of the IC50-Values after Reduction:
Leucin aminopeptidase, microsomal, from pig kidney (EC 3.4.11.2).
Suspension in 3.5 M (NH4)2SO4-solution (Sigma).
Substrate: Leu-AMC, [S]=1.5·10^−4 M (2 Km) in the reaction batch.
Buffer: 40 mM Tris/HCl-buffer, pH 7.2 in the reaction batch. […]
(§5) 60 μl of these inhibitor solutions each or water (standard), were incubated with 80 μl of the according diluted enzymes in buffer for 15 minutes at 30° C. and subsequently 60 μl of the according AMC-substrate in water (total volume 200 μl) were added. The release of the 7-Amino-4-methyl-cumarin was traced continuously over a period of 20 minutes at 30° C. using a fluorence-pladt-reader NOVOstar (BMG Labtechnologies). The enzyme concentration was chosen to give a linear increase of the fluorescence during the measuring period.
The excitation- and emission-wavelengths, respectively, were 390 and 460 nm. […] The turn-over rates (increase of fluorescence/minutes) were plotted against the concentration of the inhibitor and the IC50-values were calculated using the computer program GraFit. […]

[2] = molecular target: T2, Dipeptidyl peptidase IV (EC 3.4.14.5.) (Sus scrofa, UniProt P22411); assay: IC50 determination against DP IV after reduction of the prodrugs with DTT; format: biochemical; settings: after release (reduction with DTT) of the inhibitors from the prodrugs; pig kidney enzyme, substrate Ala-Pro-AMC, pH 7.6, 30° C.; read-out: DP IV (IC 50 [M])
T2 construct: purchased Sigma; host or cells: pig kidney (tissue-derived)
T2 sequence (P22411 whole entry): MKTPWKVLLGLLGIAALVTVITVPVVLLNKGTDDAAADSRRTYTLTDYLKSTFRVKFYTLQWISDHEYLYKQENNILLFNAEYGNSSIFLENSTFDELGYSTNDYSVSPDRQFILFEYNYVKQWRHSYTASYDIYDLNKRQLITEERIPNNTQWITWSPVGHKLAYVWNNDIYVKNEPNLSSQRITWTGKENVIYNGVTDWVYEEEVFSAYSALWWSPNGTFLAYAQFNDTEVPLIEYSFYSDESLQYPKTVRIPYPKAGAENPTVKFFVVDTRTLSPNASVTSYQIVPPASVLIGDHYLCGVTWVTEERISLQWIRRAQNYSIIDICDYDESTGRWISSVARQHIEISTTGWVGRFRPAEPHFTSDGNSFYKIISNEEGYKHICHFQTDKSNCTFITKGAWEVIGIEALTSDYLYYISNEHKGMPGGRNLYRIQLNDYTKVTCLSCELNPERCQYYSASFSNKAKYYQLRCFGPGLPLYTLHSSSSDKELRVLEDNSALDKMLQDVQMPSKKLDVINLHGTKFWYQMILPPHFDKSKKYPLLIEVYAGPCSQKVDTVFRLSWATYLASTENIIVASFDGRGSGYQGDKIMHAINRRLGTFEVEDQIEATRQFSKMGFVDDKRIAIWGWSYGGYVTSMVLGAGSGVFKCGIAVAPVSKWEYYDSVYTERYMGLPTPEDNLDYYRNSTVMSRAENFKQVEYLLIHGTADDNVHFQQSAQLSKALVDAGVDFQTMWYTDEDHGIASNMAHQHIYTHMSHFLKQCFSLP
Experimental: as §1, §2, §3, §4
Dipeptidyl peptidase IV from pig kidney (EC 3.4.14.5.), lyophilisated powder (Sigma).
Substrate: Ala-Pro-AMC, [S]=3·10^−5 M (2 Km) in the reaction batch.
Buffer: 40 mM Tris/HCl-buffer, pH 7.6, I=0.125 in the reaction batch.
By dilution with water 10 to 12 solutions with defined inhibitor concentration were prepared from the reduction batch. These were selected from a relevant concentration range, i.e. between complete inhibition and non-influenced enzyme activity.
as §5, with “period. […]” for “period.”

Row | Compound | IC50 [1] | IC50 [2]
1 | CCCCC[C@H](CC(=O)NO)C(=O)N[C@H](C(=O)N1CCC[C@H]1CO)C(C)C [Actinonine, actinonine] | 3.02e-07 M | 
2 | NC(CCCCNC(=O)OCc1ccc([N+](=O)[O-])cc1)C(=O)N1CCSC1 (centres unmarked) [Lys[Z(NO2)]-thiazolidide, H-Lys[Z(NO2)]-thiazolidide] |  | 4.34e-07 M
